In PubChem BioAssay (NCI) one finds TGI data, which are given here for 18 compounds.

Molecules are shown by their SMILES.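 96-well plates; 48 h exposure; 5 concentrations. Endpoints by linear interpolation between flanking doses. Not reached: highest tested concentration assigned. TGI: concentration producing complete growth inhibition.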

Among the test systems are RPMI-8226 leukemia; HCC-2998 colon; NCI-H460 lung; UACC-62 melanoma; LOX IMVI melanoma; PC-3 prostate; TK-10 renal.
Holding throughout (assay): NCI tumour cell line growth inhibition, 48 h

`CN(C)CCCNc1ncnc2nc[nH]c12`: the TGI in the test with RPMI-8226 leukemia, in the test on HCC-2998 colon, in the test with NCI-H460 lung, in the test on UACC-62 melanoma, with LOX IMVI melanoma and in the test on PC-3 prostate was more than 100 µM in each case. Further, the TGI with TK-10 renal was more than 100 µM.
Regarding `C#CCOCn1ccc(=O)[nH]c1=O`, the TGI in the test with RPMI-8226 leukemia, in the test on HCC-2998 colon, in the test on NCI-H460 lung, in the test on UACC-62 melanoma, in the test on LOX IMVI melanoma and in the test with PC-3 prostate was more than 100 µM throughout. The same compound came in with a TGI with TK-10 renal of more than 100 µM.
In the case of `Cc1nc(Nc2ccc(F)cc2)c2sc(=S)n(-c3ccc(F)cc3)c2n1`, the TGI is 21.9 µM with RPMI-8226 leukemia; 24.7 µM with HCC-2998 colon; 28.8 µM in the test with NCI-H460 lung; 29.6 µM in the test on UACC-62 melanoma; 17 µM in the test with LOX IMVI melanoma; 35.6 µM with PC-3 prostate. The TGI in the test with TK-10 renal was found to be 27.5 µM.
Consider `CCN(CC)CCC1CCCCN1CC(=O)N1c2ccccc2NC(=O)c2ccccc21` (centres undefined), for which the TGI in the test on RPMI-8226 leukemia, in the test on HCC-2998 colon, with NCI-H460 lung, in the test on UACC-62 melanoma, in the test with LOX IMVI melanoma and in the test with PC-3 prostate was more than 100 µM each time. The compound also showed a TGI in the test with TK-10 renal of more than 100 µM.
For the compound `CC(=O)OC1COC(n2nc(/C=C/c3ccc(Cl)cc3)c(=O)n(/N=C/c3ccccc3)c2=S)C(OC(C)=O)C1OC(C)=O` (centres undefined), the TGI in the test on RPMI-8226 leukemia, with HCC-2998 colon, with NCI-H460 lung, in the test on UACC-62 melanoma, in the test with LOX IMVI melanoma and with PC-3 prostate was more than 100 µM each time. The compound also returned a TGI in the test on TK-10 renal of more than 100 µM.
`CCN(CC)c1ccc(C2SCC(=O)N2c2ccc(NC(=O)c3ccc(N4C(=O)CSC4c4ccc(N(CC)CC)cc4)cc3)cc2)cc1` (centres undefined): the TGI with HCC-2998 colon, in the test with NCI-H460 lung, with UACC-62 melanoma, with LOX IMVI melanoma, in the test on PC-3 prostate and in the test with TK-10 renal was more than 100 µM each time.
Turning to `CCCCn1cnnc1NS(=O)(=O)c1cc(C)c(Cl)cc1SCC(=O)O`, the TGI in the test on RPMI-8226 leukemia, with HCC-2998 colon, in the test on NCI-H460 lung, in the test on UACC-62 melanoma, in the test with LOX IMVI melanoma and in the test with PC-3 prostate was more than 10 µM throughout. Further, the TGI in the test with TK-10 renal is more than 10 µM.
`N=C(N)C(N=Nc1ccccc1)C(N)=O` (centres undefined): the TGI in the test with RPMI-8226 leukemia, with HCC-2998 colon, in the test with NCI-H460 lung, in the test with UACC-62 melanoma, with LOX IMVI melanoma and in the test with PC-3 prostate was more than 100 µM throughout. The TGI with TK-10 renal was more than 100 µM.
In the case of `Cc1cnc(/N=c2\sc(C)cn2-c2ncc(C)s2)s1`, the TGI in the test with RPMI-8226 leukemia, in the test with HCC-2998 colon, in the test on NCI-H460 lung, with UACC-62 melanoma, with LOX IMVI melanoma and in the test with PC-3 prostate was more than 100 µM in each case. The compound further showed a TGI in the test on TK-10 renal of more than 100 µM.
`O=C1C=CC(=O)c2c(NCC3CC3)ccc(NCC3CC3)c21`: the TGI with RPMI-8226 leukemia was 47.4 µM; in the test on HCC-2998 colon it was more than 100 µM; with NCI-H460 lung, more than 100 µM; in the test on UACC-62 melanoma it was 65.3 µM; with LOX IMVI melanoma, 43 µM; in the test with PC-3 prostate, more than 100 µM. This compound also came in with a TGI in the test on TK-10 renal of more than 100 µM.
With `Cc1ccc2cc3c(ccc4ccccc43)c3c2c1CC3`, the TGI with RPMI-8226 leukemia, in the test with HCC-2998 colon, in the test on NCI-H460 lung, in the test on UACC-62 melanoma, with LOX IMVI melanoma and with PC-3 prostate was more than 100 µM throughout. In the test with TK-10 renal, this compound registered a TGI of more than 100 µM.
In the case of `C/C(=N\NC(=S)NC1CCCC1)c1ccccn1`, the TGI in the test on RPMI-8226 leukemia was 1.99 µM; with HCC-2998 colon, more than 100 µM; in the test on NCI-H460 lung it was more than 19.9 µM; in the test with UACC-62 melanoma, 7.8 µM; in the test with LOX IMVI melanoma, 17.8 µM; with PC-3 prostate, more than 100 µM. This compound registered a TGI in the test on TK-10 renal of more than 100 µM.
On to `CCN(CCCN(CC)C(=O)Nc1ccccc1)C(=O)Nc1ccccc1`, for which the TGI in the test with RPMI-8226 leukemia, with HCC-2998 colon, in the test with NCI-H460 lung, with UACC-62 melanoma, in the test on LOX IMVI melanoma and in the test with PC-3 prostate was more than 100 µM throughout. The TGI in the test with TK-10 renal is more than 100 µM.
For the compound `CCCc1c(O)c(=O)c2c(OC)cc(OC)c3c4c(OC)cc(OC)c5c(=O)c(O)c(CCC)c(c1c23)c54`, the TGI came to 1.11 µM in the test on RPMI-8226 leukemia; 17.1 µM in the test with HCC-2998 colon; 2.31 µM in the test on NCI-H460 lung; 1.88 µM with UACC-62 melanoma; 1.86 µM in the test on LOX IMVI melanoma; 18.2 µM with PC-3 prostate. The compound further had a TGI in the test with TK-10 renal of 15.8 µM.
Turning to `COc1cc(NCc2ccc3nc(-c4ccccc4)c(N)nc3c2)cc(OC)c1OC`, the TGI with HCC-2998 colon is more than 100 µM; in the test on NCI-H460 lung, more than 100 µM; with UACC-62 melanoma, 72.6 µM; in the test with LOX IMVI melanoma it was more than 100 µM; in the test with PC-3 prostate, 93.6 µM; with TK-10 renal it was more than 100 µM.
For `OCC1OC(NCCNCCNC2OC(CO)C(O)C(O)C2O)C(O)C(O)C1O` (centres undefined), the TGI with RPMI-8226 leukemia, with HCC-2998 colon, with NCI-H460 lung, in the test on UACC-62 melanoma, with LOX IMVI melanoma and with PC-3 prostate was more than 100 µM throughout. This compound came in with a TGI in the test with TK-10 renal of more than 100 µM.
For `CCOP1(=O)C=C(Sc2ccc([N+](=O)[O-])cc2[N+](=O)[O-])C(C)(C)O1` (centres undefined), the TGI is 39.2 µM with RPMI-8226 leukemia; 39.7 µM in the test with HCC-2998 colon; 49.2 µM in the test with NCI-H460 lung; 26.4 µM in the test with UACC-62 melanoma; more than 34.9 µM in the test with LOX IMVI melanoma; more than 50.1 µM in the test on PC-3 prostate. Besides, the TGI in the test on TK-10 renal stood at 31.3 µM.
Take `O=C(Cn1cc(F)c(=O)[nH]c1=O)C12CC3CC(CC(C3)C1)C2`: the TGI with RPMI-8226 leukemia, in the test on HCC-2998 colon, in the test with NCI-H460 lung, with UACC-62 melanoma, in the test with LOX IMVI melanoma and in the test on PC-3 prostate was more than 100 µM in each case. Also, the TGI with TK-10 renal is more than 100 µM.
